PubChem BioAssay (NCI)
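Step 1: Grow cells in 96-well plates. Step 2: Expose to compound for 48 hours at 5 concentrations. Step 3: Interpolate endpoints linearly; if unreached, use highest concentration. GI50 is the concentration that inhibits growth by half. The concentration for full growth arrest is given as TGI.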

Legend:
Assay in all cases: growth of human tumour cells (NCI), 48 h
MDA-MB-231 breast = test system: MDA-MB-231 breast
SNB-78 CNS = test system: SNB-78 CNS
M19-MEL melanoma = test system: M19-MEL melanoma
RXF 393 renal = test system: RXF 393 renal
MDA-MB-435 = test system: MDA-MB-435
HS 578T breast = test system: HS 578T breast
IGROV1 ovarian = test system: IGROV1 ovarian
HOP-18 NSCLC = test system: HOP-18 NSCLC
KM20L2 colon = test system: KM20L2 colon
BT-549 breast = test system: BT-549 breast

Row | SMILES | TGI (MDA-MB-231 breast) [µM] | TGI (SNB-78 CNS) [µM] | TGI (M19-MEL melanoma) [µM] | TGI (RXF 393 renal) [µM] | TGI (MDA-MB-435) [µM] | TGI (HS 578T breast) [µM] | TGI (IGROV1 ovarian) [µM] | TGI (HOP-18 NSCLC) [µM] | TGI (KM20L2 colon) [µM] | GI50 (MDA-MB-231 breast) [µM] | GI50 (BT-549 breast) [µM] | TGI (BT-549 breast) [µM] | GI50 (SNB-78 CNS) [µM] | GI50 (M19-MEL melanoma) [µM] | GI50 (RXF 393 renal) [µM] | GI50 (MDA-MB-435) [µM] | GI50 (HS 578T breast) [µM] | GI50 (IGROV1 ovarian) [µM] | GI50 (HOP-18 NSCLC) [µM] | GI50 (KM20L2 colon) [µM]
1 | C/C(N=NC(=S)N1CC2CCC(CC2)C1)=C1\C=CC=CN1O | > 100 | > 100 | 23.3 | 69.3 | > 100 | > 100 | > 100 | > 100 | > 100 | – | – | – | – | – | – | – | – | – | – | –
2 | CN(C)C(=S)/N=c1\sn(C)/c(=N\C(=S)N(C)C)n1C | – | > 100 | 69.7 | > 100 | – | – | > 100 | > 100 | > 100 | – | – | – | – | – | – | – | – | – | – | –
3 | c1ccc2c(OCCSCCCCCCCCCCSCCOc3cccc4ccccc34)cccc2c1 | – | > 100 | > 100 | > 100 | – | – | > 100 | > 100 | > 100 | – | – | – | – | – | – | – | – | – | – | –
4 | CCC[CH2][Sn]([CH2]CCC)([O]C(=O)c1ccc(OC)c(OC)c1OC)[O][Sn]([CH2]CCC)([CH2]CCC)[O]C(=O)c1ccc(OC)c(OC)c1OC | 1.89 | 0.211 | 1.05 | 0.38 | 1.9 | 1.81 | 2.47 | 0.473 | 2.12 | 0.586 | 0.241 | 1.15 | 0.0392 | 0.21 | 0.153 | 0.579 | 0.282 | 0.891 | 0.27 | 0.76
5 | Cc1c(N(C)C)ccc2c(=O)c3cccc(CC(=O)O)c3oc12 | > 100 | > 100 | > 100 | > 100 | > 100 | > 100 | > 100 | > 100 | > 100 | – | – | > 100 | – | – | – | – | – | – | – | –
6 | CCOC(=O)c1ccc(/C(C)=N/NC(N)=S)cc1 | – | > 100 | > 100 | > 100 | – | – | > 100 | > 100 | > 100 | – | – | – | – | – | – | – | – | – | – | –
7 | COC(=O)C1CCCC2(C1)OCCO2 (stereo not drawn) | – | > 100 | > 100 | > 100 | – | – | > 100 | > 100 | > 100 | – | – | – | – | – | – | – | – | – | – | –
